The text below walks through data of patent US20090305338A1, “Plant cell lines established from the medicinal plant veratrum californicum” (priority 2006, published 2009).

For data set [1], the system named is Veratrum californicum embryos. Description: Embryogenic callus induction from mature embryos (% of embryogenesis). Type of data set: cell-based. The settings on record: medium 502; data from 5 replicates.
Data set [2] deals with Veratrum californicum embryos. The data set is described as above. Type of data set: cell-based. How it is done: (§1) Seeds of Veratrum californicum Durand were peeled, rinsed with 94% ethanol and surface sterilized with 1% (v/v) sodium hypochlorite supplemented with a few drops of Tween20 for 10 minutes, and finally rinsed three times with sterile water. Seeds were allowed to germinate for 2 days at 22° C. in the dark on moist filter paper. Embryos were excised and cultured on MS medium (11) solidified with gelrite (3% w/v) and supplemented with 1 mg/l kinetin and 1 mg/l NAA in the dark at 22° C. Produced calli were subcultured to fresh plates in two to three weeks intervals. After four months of culture calli were transferred to L2-medium (12) solidified with gelrite (3% w/v) and supplemented with 2.5 mg/l 2,4-D and were subsequentially subcultured to fresh plates at one month intervals. Embryogenic callus cultures from isolated V. californicum embryos were induced by the following media: Basal media MS (11), R2M (13), L2 (12), modified MS medium (mMS, consisting of MS basic salts and vitamins, 146 mg/l glutamine, 200 mg/l casein hydrolysate) and AA (14) supplemented with different hormones (picloram, NAA, 2,4-D, dicamba) at three levels (2, 4 and 7 mg/l) all solidified with gelrite (3% w/v). The cultures were kept in the dark, at 25° C. and embryogenic calli were subcultured at one month intervals.
Frequencies of embryos producing embryogenic calli and frequencies of regenerated green and albino plants were recorded. Oxidative browning percentages of embryos were calculated. Completely randomized designs (CRD) were used in the experiments. Each Petri-dish with 20 embryos was considered an experimental unit and each treatment contained five replicates. Data analyses with two treatment levels were carried out by t-test, and with more than two treatment levels by the ANOVA procedure. Multi-range comparisons were performed by the LSD test.

In a further data set the test system is suspension line B. Description: Growth optimization of the suspension cell line B. Type of data set: cell-based, Veratrum californicum. Conditions: AA medium, 4 mg/l. How it is done: Growth of suspension line B on L2-medium with 2,4-D (2.5 mg/l) was further optimized. About 3 g (fw) of cells were transferred to an Erlenmeyer flask containing 50 ml liquid AA medium (with 2,4-D and NAA at levels of 2, 4 and 7 mg/l or without hormones), and incubated in the light (light intensity about 30-40 […] Osram cool white/Osram fluora, 1:1 on watt basis) on a rotary shaker (130 rpm) at 25° C. The volume of the liquid medium was added up to 100 ml after the second subculture. The suspensions were sub-cultured at three weeks intervals by replacing about half of the old culture with an equal volume of fresh medium.

For data set [3], the system named is suspension lines A, B and C. The data set can be described thus: Cryopreservation of the cell suspension lines A, B and C. Type of data set: cell-based, Veratrum californicum. Conditions: 5% (v/v), after osmotic dehydration. How it is done: The suspension lines A, B and C were cryopreserved by using a Kryo10 device (Planer Biomed). The suspensions were subcultured 4 to 5 days prior to the start of the cryopreservation experiment. A dehydration procedure as follows was applied: I) Sugar alcohol concentration of the suspension was adjusted to 0.2 M by adding five times small aliquots of 4 M sorbitol during a period of 30 minutes. After sorbitol additions, the suspensions were incubated under normal growth conditions for 24 hours (in the dark, 25° C., on a rotary shaker (90 rpm)). II) Sugar alcohol concentration was adjusted to 0.4 M by 4 M sorbitol and incubations were carried out as in step I). The dehydrated suspensions were transferred to ice and DMSO was added to reach 5% (v/v) concentration. Cell:medium ratio was adjusted to 1:2 and suspensions were packed into ampulles. Protectant-treated suspensions were kept on ice for a period of 100 minutes. A freezing protocol as follows was applied: I) A rate of 10° C./min to reach 0° C. was followed by II) incubation at 0° C. for 20 minutes. The freezing was finalized by using III) a rate of 1° C./min to reach −40° C. and then IV) samples were immersed in liquid nitrogen. Thawing of cryopreserved samples was carried out by immersing the suspension ampulles straight from liquid nitrogen to a 40° C. water bath for 2 minutes. […] Cell division and growth of the cultures were monitored.

Data set [4] deals with Veratrum californicum embryos. Description: Phenolic exudation / oxidative browning during embryo culture. Type of data set: cell-based. Conditions: mMS medium containing picloram. How it is done:
as §1, with “The cultures were kept in the dark, at 25° C. and embryogenic calli were subcultured at one month intervals.” left out
Frequencies of embryos producing embryogenic calli and frequencies of regenerated green and albino plants were recorded. Oxidative browning percentages of embryos were calculated. […]

For data set [5], the system named is Sonic hedgehog signal transduction. The settings on record: cited from earlier work.
A further data set concerns sheep. Conditions: ewes consuming Veratrum during early pregnancy; cited from earlier work.
Data set [6] has as its system Veratrum californicum plant suspension cell lines. The data set can be described thus: Elicitation of steroid alkaloid production in plant suspension cell lines. Type of data set: cell-based. How it is done:
100 μl 0.5% SDS solution and 50 μl 25% NH4OH was added to 100 mg FW frozen cell powder. After mixing 1 ml toluene was added and the solution was extracted for 10 min in an ultrasonic bath. Following centrifugation the organic layer was collected and the sample residue was twice re-extracted with another 1 ml toluene. The organic phases were combined and the solvent was evaporated to dryness. The residue was then quantitatively transferred to a GC vial and re-dissolved in 80 μl CH2Cl2. An aliquot was directly injected into the GC.
GC separation was performed using an Agilent 6890 system and was monitored with an Agilent 5973 Network MS Quadropole. The selected ion mode function was applied to record the characteristic molecular ions (cyclopamine: 124, 396; jervine: 110, 124). Within a set of samples the response values for the specific ions were used to compare relative levels of alkaloids. A mixture of commercially available reference compounds (cyclopamine and jervine) was routinely analyzed for comparison of retention times and fragmentation.

[7] abbreviates: medium AA, data from 5 replicates.
The mark [8] stands for this setting: medium MS, data from 5 replicates.
Setting [9] is: medium R2M, data from 5 replicates.
Where [10] appears, read: medium mMS, data from 5 replicates.
Setting [11] is: growth regulator 2 mg/l, average over mMS, R2M, AA.
The mark [12] stands for this setting: growth regulator 2 mg/l, medium AA.
Where [13] appears, read: growth regulator 2 mg/l, medium R2M.
Setting [14] is: growth regulator 2 mg/l, medium mMS.
Where [15] appears, read: growth regulator 4 mg/l, average over mMS, R2M, AA.
[16] abbreviates: growth regulator 4 mg/l, medium AA.
The mark [17] stands for this setting: growth regulator 4 mg/l, medium R2M.
The mark [18] stands for this setting: growth regulator 4 mg/l, medium mMS.
Where [19] appears, read: growth regulator 7 mg/l, average over mMS, R2M, AA.
The mark [20] stands for this setting: growth regulator 7 mg/l, medium AA.
[21] abbreviates: growth regulator 7 mg/l, medium R2M.
Setting [22] is: growth regulator 7 mg/l, medium mMS.

For `O=C(O)COc1ccc(Cl)cc1Cl` [2,4-D], the “% of embryogenesis” value in data set [1] turned out to be 53.41%; in data set [2] (setting [7]), 43.43%; in data set [2] (setting [8]), 50.52%; in data set [2] (setting [9]), 58.85%; in data set [2] (setting [10]), 55.32%. The “% of embryogenesis, Average” value in data set [2] (average over the five media) was 52.33c %. Further, the “growth of the suspension line B” value in the data set on suspension line B is “improved the growth”.
Take `C[S+](C)[O-]` [DMSO]: in data set [3], the cryoprotectant effect result is “sufficient as a cryoprotectant”.
`COc1c(Cl)ccc(Cl)c1C(=O)O` [Dicamba, dicamba]: the “% of embryogenesis” value is 55.61% in data set [1]; 51.24% in data set [2] (setting [7]); 50.90% in data set [2] (setting [8]); 58.67% in data set [2] (setting [9]); 60.79% in data set [2] (setting [10]). Besides, the “% of embryogenesis, Average” value in data set [2] (average over the five media) stood at 55.44bc %.
On to `O=C(O)Cc1cccc2ccccc12` [NAA, 1-naphthaleneacetic acid], for which the “% of embryogenesis” value in data set [1] came out at 64.98%; in data set [2] (setting [12]), 48.95%; in data set [2] (setting [13]), 63.75%; in data set [2] (setting [14]), 65.35%; in data set [2] (setting [16]), 64.21%; in data set [2] (setting [17]), 74.32%. The “% of embryogenesis” value in data set [2] (setting [18]) is recorded as 73.67%; in data set [2] (setting [20]), 68.06%; in data set [2] (setting [21]), 73.01%; in data set [2] (setting [22]), 75.37%; in data set [2] (setting [7]) it was 62.04%; in data set [2] (setting [8]), 62.62%. For the same compound, the “% of embryogenesis” value was 73.95% in data set [2] (setting [9]) and 74.93% in data set [2] (setting [10]). Also, the “% of embryogenesis, Average” value in data set [2] (average over the five media) is listed as 67.70a %; in data set [2] (setting [11]), 59.35b %; in data set [2] (setting [15]) it was 70.74a %; in data set [2] (setting [19]) it was 72.15a %. The “growth of the suspension line B” value with suspension line B is listed as “improved the growth”.
Turning to `Nc1c(Cl)c(Cl)nc(C(=O)O)c1Cl` [Picloram, picloram], the “% of embryogenesis” value in data set [1] worked out at 68.32%; in data set [2] (setting [12]), 51.43%; in data set [2] (setting [13]) it was 68.53%; in data set [2] (setting [14]) it was 69.76%; in data set [2] (setting [16]), 62.59%; in data set [2] (setting [17]), 75.73%. Besides, the “% of embryogenesis” value in data set [2] (setting [18]) came to 80.57%; in data set [2] (setting [20]), 59.97%; in data set [2] (setting [21]), 76.07%; in data set [2] (setting [22]), 81.46%; in data set [2] (setting [7]) it was 59.75%; in data set [2] (setting [8]) it was 69.32%. The “% of embryogenesis” value is on record as 75.40% in data set [2] (setting [9]) and 81.33% in data set [2] (setting [10]). The “% of embryogenesis, Average” value was determined as 70.82a % in data set [2] (average over the five media), 63.24B % in data set [2] (setting [11]), 72.96A % in data set [2] (setting [15]) and 72.50A % in data set [2] (setting [19]). Moreover, the “percentage of embryos producing phenolic exudates” value in data set [4] was determined as 18.9%.
On to `CC1=C2C[C@H]3[C@@H](CC=C4C[C@@H](O)CC[C@@]43C)[C@@H]2CC[C@]12O[C@@H]1C[C@H](C)CN[C@H]1[C@H]2C` [cyclopamine], for which, in data set [5], the “effect on Sonic hedgehog signal transduction” value is listed as “selectively blocks Sonic hedgehog signal transduction”. Further, the teratogenicity entry in the data set with sheep is reported as “responsible teratogens”.
As for `CC1=C2C(=O)[C@H]3[C@@H](CC=C4C[C@@H](O)CC[C@@]43C)[C@@H]2CC[C@]12O[C@@H]1C[C@H](C)CN[C@H]1[C@H]2C` [jervine], the teratogenicity result in the data set with sheep is on record as “responsible teratogens”.
Consider `CC/C=C\CC1C(=O)CCC1CC(=O)OC` (centres unmarked) [methyl-jasmonate, methyl jasmonate], for which the “production of cyclopamine and jervine upon elicitation” value in data set [6] was “showed the production of cyclopamine and jervine”.
